Test results taken from patent US11001850B2, “Constructs and methods for biosynthesis of cyclopamine” (priority 2014, dated 2021).

Columns and labels:
Type in all cases: biochemical, Veratrum californicum
[1] = system: CYP90G1 (22-hydroxy-26-aminocholesterol 22-oxidase); test: Substrate testing of CYP90G1 (22-hydroxy-26-aminocholesterol 22-oxidase) co-expressed with CPR in Sf9 cells; parameters: key to Production of a detectable product (substrate testing), CYP90G1: Production of a detectable product is indicated by a (+); details: for Oxidation of the 22-hydroxy position of substrate by VC13284 (22-hydroxy-26-aminocholesterol 22-oxidase), in words: Sf9 cells with CPR, GC-MS / LC-MS/MS; for Production of a detectable product (substrate testing), CYP90G1: 7.5 μM substrate, crude Sf9 cell suspension with CPR, 1.25 mM NADPH, 30° C. for 2 hours, GC-MS or LC-MS/MS
Protocol: (§1) Each cytochrome P450 co-expressed with CPR in S. frugiperda Sf9 cells was subjected to individual enzyme assays with the compounds found in Table 6 to determine functionality. Compounds were prepared to 1 mM stock solutions of 100% DMSO and diluted with H2O.
(§2) Standards were obtained from Sigma Aldrich, Research Plus, and Avanti. For GC-MS analysis, 5 individual assays per substrate were pooled after incubation at 30° C. for 2 hours; one assay produced sufficient product for analysis by LC-MS/MS. Assay conditions were as follows: 80 μl S. frugiperda Sf9 cell suspension (obtained by re-suspension of 50 ml viral infected culture pellet in 3.5 ml of 100 mM tricine pH 7.4/5 mM thioglycolic acid), 60 mM potassium phosphate buffer pH 8, 1.25 mM NADPH, 7.5 μM substrate, and H2O in a total volume of 200 μl. Controls were performed with no enzyme and S. frugiperda Sf9 cells expressing an unrelated cytochrome P450, or CPR-only, for each assay.

[2] = system: CYP94N1 (22-hydroxycholesterol 26-hydroxylase/oxidase); test: Substrate testing of CYP94N1 (22-hydroxycholesterol 26-hydroxylase/oxidase) co-expressed with CPR in Sf9 cells; parameters: key to Production of a detectable product (substrate testing), CYP94N1: Production of a detectable product is indicated by a (+); details: for Hydroxylation of substrate by VC12709 (22-hydroxycholesterol 26-hydroxylase/oxidase), in words: Sf9 cells with CPR, GC-MS
Protocol: as §1, §2
Assay for GC-MS: Cytochrome P450 enzyme assay conditions were identical to those stated above using S. frugiperda Sf9 cell suspensions with the following modifications. First, 12 assays each containing 22-hydroxy-26-aminocholesterol 22-oxidase+CPR, 22-hydroxycholesterol 26-hydroxylase/oxidase+CPR, or control cytochrome P450+CPR and each with pure 22(R)-hydroxycholesterol were allowed to incubate overnight at 30° C. Like assays were pooled, extracted 3 times with 2 volumes ethyl acetate, dried under N2, and re-suspended in 180 μl of 25% DMSO. Extracts containing the enzymatic product of the 22-hydroxycholesterol 26-hydroxylase/oxidase+CPR and 22(R)-hydroxycholesterol were divided equally and used as substrate for 22-hydroxy-26-aminocholesterol 22-oxidase+CPR and control cytochrome P450+CPR. Extracts containing the enzymatic product of 22-hydroxy-26-aminocholesterol 22-oxidase+CPR and 22(R)-hydroxycholesterol were divided and used as substrate in 6 assays containing 22-hydroxycholesterol 26-hydroxylase/oxidase+CPR and 6 assays containing control cytochrome P450+CPR. Control P450+CPR assay was run in parallel, treated identically and added to another control P450 assay. Refer to FIG. 1A for an overview of the experiment. Assays were allowed to incubate for 20 min at 30° C. then stopped by addition of 20 μl of 20% TCA with vortexing. Like assays were pooled, extracted, derivatized, and analyzed by GC-MS using the method stated above.

[3] = system: CYP90B27 (cholesterol 22-hydroxylase); test: Substrate testing of CYP90B27 (cholesterol 22-hydroxylase) co-expressed with CPR in Sf9 cells; parameters: key to Production of a detectable product (substrate testing), CYP90B27: Production of a detectable product is indicated by a (+); details: for Production of a detectable product (substrate testing), CYP90B27: 7.5 μM substrate, crude Sf9 cell suspension with CPR, 1.25 mM NADPH, 30° C. for 2 hours, GC-MS or LC-MS/MS; for Hydroxylation of substrate by cholesterol 22-hydroxylase (VC2646), in words: Sf9 cells with CPR, GC-MS
Protocol: Compounds were prepared to 1 mM stock solutions of 100% DMSO and diluted with H2O.
as §2

With `CC(CN)CCC(O)[C@@H](C)[C@H]1CC[C@H]2[C@@H]3CC=C4C[C@@H](O)CC[C@]4(C)[C@H]3CC[C@]12C` (stereo partly shown) [22-hydroxy-26-aminocholesterol] the “Oxidation of the 22-hydroxy position of substrate by VC13284 (22-hydroxy-26-aminocholesterol 22-oxidase), in words” value (“Oxidation” below) [1] was “oxidizes the 22-hydroxy position”.
In the case of `CC(C)CCC[C@@H](C)[C@H]1CC[C@H]2[C@@H]3CC=C4C[C@@H](O)CC[C@]4(C)[C@H]3CC[C@]12C` [cholesterol], the “Hydroxylation of substrate by VC12709 (22-hydroxycholesterol 26-hydroxylase/oxidase), in words” value [2] is reported as “not detected”, the “Production of a detectable product (substrate testing), CYP90B27” value (shortened to “Production … CYP90B27”) [3] is reported as “+” and the “Hydroxylation of substrate by cholesterol 22-hydroxylase (VC2646), in words” value (“Hydroxylation of substrate … (VC2646), in words” for short) [3] is reported as “added a hydroxyl group to the 22-position”.
With `CC(C)CCC(=O)[C@@H](C)[C@H]1CC[C@H]2[C@@H]3CC=C4C[C@@H](O)CC[C@]4(C)[C@H]3CC[C@]12C` [22-keto-cholesterol] the “Hydroxylation of substrate by VC12709 (22-hydroxycholesterol 26-hydroxylase/oxidase), in words” value [2] was “unable to hydroxylate”.
For `CC(C)CC[C@@H](O)[C@@H](C)[C@H]1CC[C@H]2[C@@H]3CC=C4C[C@@H](O)CC[C@]4(C)[C@H]3CC[C@]12C` [22(R)-hydroxycholesterol], the “Production of a detectable product (substrate testing), CYP94N1” value ([2]; 7.5 μM substrate, crude Sf9 cell suspension with CPR, 1.25 mM NADPH, 30° C. for 2 hours, GC-MS or LC-MS/MS) was “+”, the “Hydroxylation of substrate by VC12709 (22-hydroxycholesterol 26-hydroxylase/oxidase), in words” value [2] was “found to hydroxylate” and the “Production of a detectable product (substrate testing), CYP90G1” value [1] was “+”. The “Oxidation” value [1] was “oxidizes the 22-hydroxy position” and the “Production … CYP90B27” value [3] was “+”.
With `C[C@@H](CO)CCC[C@@H](C)[C@H]1CC[C@H]2[C@@H]3CC=C4C[C@@H](O)CC[C@]4(C)[C@H]3CC[C@]12C` [26-hydroxycholesterol] the “Production … CYP90B27” value [3] was “+” and the “Hydroxylation of substrate … (VC2646), in words” value [3] was “hydroxylated”.
In the case of `CC(C)CCC[C@@H](C)[C@H]1CC[C@H]2[C@@H]3[C@@H](O)C=C4C[C@@H](O)CC[C@]4(C)[C@H]3CC[C@]12C` [7β-hydroxycholesterol], the “Production … CYP90B27” value [3] is reported as “+” and the “Hydroxylation of substrate … (VC2646), in words” value [3] is reported as “hydroxylated”.
`CC(CO)CCC(O)[C@@H](C)[C@H]1CC[C@H]2[C@@H]3CC=C4C[C@@H](O)CC[C@]4(C)[C@H]3CC[C@]12C` (stereo partly shown) [22,26-dihydroxycholesterol] was tested, and the “Production of a detectable product (substrate testing), CYP90G1” value [1] was “+” and the “Oxidation” value [1] was “oxidizes the 22-hydroxy position”.
